These results are taken from patent publication US20260234188A1, “CHEMOKINE-BINDING PEPTIDES” (Oxford University Innovation Limited, priority 2022, published 2026).

For one test, the target named is T1, CXCL9 (Homo sapiens, UniProt Q07325).
T1 construct: purchased Peprotech
T1 sequence (Q07325 23-125): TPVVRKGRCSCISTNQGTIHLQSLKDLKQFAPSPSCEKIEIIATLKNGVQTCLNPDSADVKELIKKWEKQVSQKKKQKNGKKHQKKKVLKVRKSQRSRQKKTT
The test can be described thus: CXCL9-induced activated T-cell migration, transwell assay. The settings on record: HD2 mutant peptides 10 μM, chemokine at EC80. The class given is cell-based. The protocol:
FIG. 2. […] BK1.2 is described in (Darlot, 2020). […] Chemokines used are indicated by the name, followed in parenthesis by the supplier code (P in supplier code indicates Peprotech). […] All experiments were performed at EC80 doses of indicated chemokine. Data are shown as box-whisker plots of three technical and three biological replicates. Statistically significant differences (compared to control, indicated by #), using Dunnett's test with correction for multiple comparisons, are indicated by asterisks: ****=P≤0.0001, ***=P≤0.001, **=P≤0.01, *=P≤0.05.
(§1) Briefly, cell migration assays use THP1 cells (human monocyte) and primary human buffy coat white cells (consisting of neutrophil granulocytes, monocytes, and lymphocytes), and activated T-cells. THP1 cells and primary monocytes respond to CCL2, CCL3, CCL5, CCL8 and CXCL4, granulocytes to CXCL1 and CXCL8, activated T-cells to CXCL9/10/11. Assays are performed in 96-well Boyden chambers, and migrated cells counted and characterized using and ATTUNE Flow Cytometer as described. Triplicate assays are performed at the EC80 dose of each chemokine at 10 μM peptide concentration.
The J:CXCR1 cell line was generated by transfecting Jurkat cells by electroporation with PvuI-linearized plasmid D1398 and selecting with blasticidin (Sigma-Aldrich, Cat #203350, […]). […] J:CXCR1 cells were cultured in RPMI-1640 media (Gibco), supplemented with 10% FBS and 5 mM L-Glutamine with blasticidin. For J:CXCR1 migration assays, 300,000 cells/well were added to the top chamber of a 3 μm Transwell insert (Corning) in 50 μL of migration media (RPMI-1640, 0.5% FBS, 4 mM L-Glutamine, 0.05% DMSO). The bottom chamber contained 150 μL of chemokine, with or without peptide. Cells were migrated at 37° C. in 5% CO2 for 4 hours. The plate was incubated on a shaking platform for 10 minutes, 800 rpm, at 37° C., and 150 μL from the bottom of the plate transferred into a U-bottom plate containing 50 μL of migration media. Cell counts were determined by Attune NxT Flow Cytometer Plate Reader (ThermoFisher), based on cell size parameters FSC-H/SSC-H. Experiments were performed in 3 technical and 3 biological replicates. THP-1 migration assays were carried out using methods known in the art. Activated T-cell assays were carried out using methods known in the art, with the following modifications in the isolation process. Peripheral blood cells were obtained from leucocyte cones (NHS Blood Transfusion Services), following which, T-cells were isolated using two rounds of human CD8+ T-cell isolation kit (480011, BioLegend). At day 10 after activation, T-cells were frozen at 20 E6 cells/ml in TexMACS medium supplemented with 10% DMSO (D2650, Sigma) in liquid nitrogen. Prior to use, activated T-cells were recovered for 24 hours in TexMACs medium at 0.3 E6 cells/ml and incubated at 37° C. in 5% CO2. Chemokine sources are described in Supplementary information Table 3. Statistical significances between control experimental groups was evaluated using Dunnett's test. IC50 experiments were performed at the EC80 dose of chemokine. EC80 was calculated by fitting a chemokine dose-response curve with 3 parameters (fixing the top to 100%). IC50 was calculated by fitting an inhibitor response curve with 4 parameters.

In another test the test system is CC and CXC chemokines. Description: Chemokine-induced cell migration assays, pooled over chemokines (meta-analysis). The class given is cell-based, human. As to conditions: single HD2 mutations; nine CC and six CXC chemokines. The protocol: FIG. 16. Effect of HD2 alanine mutations on chemotaxis. […] All experiments were performed as three technical and three biological replicates, and individual data points are indicated, and coloured by the chemokine used. Statistically significant differences (compared to control, coloured blue), using Dunnett's test with correction for multiple comparisons, are indicated by asterisks: ****=P≤0.0001, ***=P≤0.001, **=P≤0.01, *=P≤[…] observations per group (three technical and three biological replicates for each chemokine). FIG. 16B, Faceted plots of change in median normalised cell count between alanine mutant and wild-type HD2 peptide obtained in cell migration assays (Y-axis, Δmedian normalised cell count) versus alanine mutated residue (X-axis). Chemokines used for each experiment are indicated in the strip to the right of each plot. Statistically significant differences compared to parental HD2 are shown as red dots. […] Scatterplot of Δmedian normalised cell count (Y-axis, obtained in cell migration assays) versus Δlog 2 E (obtained in phage-display experiments) for peptide:chemokine pairs. Individual data points indicate peptide chemokine pairs for which both cell migration and Δlog 2 E were available. Linear regression plot with 95% confidence interval, Spearman correlation coefficient (R) and statistical significance (p) are shown.
FIG. 19. […] All experiments were performed as at least three technical and three biological replicates, and individual data points are indicated, and coloured by the chemokine used, for all chemokines studied (n=16 chemokines). Statistically significant differences (compared to control, coloured blue), using Dunnett's test with correction for multiple comparisons, are indicated by asterisks: ****=P≤0.0001, ***=P≤0.001, **=P≤0.01, *=P≤0.05.
as §1
The J:CXCR1 cell line was generated by transfecting Jurkat cells by electroporation with PvuI-linearized plasmid D1398 and selecting with blasticidin (Sigma-Aldrich, Cat #203350, […]). […] J:CXCR1 cells were cultured in RPMI-1640 media (Gibco), supplemented with 10% FBS and 5 mM L-Glutamine with blasticidin. For J:CXCR1 migration assays, 300,000 cells/well were added to the top chamber of a 3 μm Transwell insert (Corning) in 50 μL of migration media (RPMI-1640, 0.5% FBS, 4 mM L-Glutamine, 0.05% DMSO). The bottom chamber contained 150 μL of chemokine, with or without peptide. Cells were migrated at 37° C. in 5% CO2 for 4 hours. The plate was incubated on a shaking platform for 10 minutes, 800 rpm, at 37° C., and 150 μL from the bottom of the plate transferred into a U-bottom plate containing 50 μL of migration media.

Ends that are not written are not given here. Peptide text beside a SMILES is read from it.

Turning to `CC(C)C[C@H](NC(=O)[C@@H]1CCCN1C(=O)[C@H](C)NC(=O)[C@H](Cc1ccc(O)cc1)NC(=O)[C@H](C)NC(=O)[C@@H](NC(=O)[C@H](Cc1ccc(O)cc1)NC(=O)[C@H](CC(=O)O)NC(=O)[C@H](CC(=O)O)NC(=O)[C@H](CCC(=O)O)NC(=O)[C@@H](N)CCC(=O)O)[C@@H](C)O)C(=O)N[C@H](C(=O)N[C@@H](CS)C(=O)N[C@@H](Cc1ccc(O)cc1)C(=O)N[C@@H](Cc1ccccc1)C(=O)N[C@@H](CS)C(N)=O)[C@@H](C)O` [HD2_C16, EEDDYTAYAPLTCYFC] (H-EEDDYTAYAPLTCYFC-NH2; N-terminus assumed), the “chemotaxis compared with the parental HD2 peptide” value on CXCL9 is “significant reduction in chemotaxis”. In addition, the “chemotaxis inhibition compared with HD2, meta-analysis” value in the test on CC and CXC chemokines was “significant improvement over HD2”.

Consider “EEDDWTAYAPLTCYFT-NH2 [HD2_W5, EEDDWTAYAPLTCYFT]”, for which the “chemotaxis compared with the parental HD2 peptide” value at CXCL9 is “significant reduction in chemotaxis”. Moreover, in the test with CC and CXC chemokines, the “chemotaxis inhibition compared with HD2, meta-analysis” value was “significant improvement over HD2”.

For the compound EEDDYTAYWPLTCYFT [A9W], in the test with CXCL9, the “chemotaxis compared with the parental HD2 peptide” value is given as “significant reduction in chemotaxis”. Moreover, in the test with CC and CXC chemokines, the “chemotaxis inhibition compared with HD2, meta-analysis” value is “significant improvement over HD2”.

Consider EEDDYWAYAPLTCYFT [HD2_W6], for which, at CXCL9, the “chemotaxis compared with the parental HD2 peptide” value is on record as “significant reduction in chemotaxis”. In the test with CC and CXC chemokines, the “chemotaxis inhibition compared with HD2, meta-analysis” value is listed as “significant improvement over HD2”.
